These are literature values, as cited in patent publication US9434994B2, “Methods for prediction of clinical outcome to epidermal growth factor receptor inhibitors by non-small cell lung cancer patients” (The Regents of the University of Colorado, a body corporate, priority 2004, dated 2016).

Data set [1] concerns advanced NSCLC patients. The settings on record: cited from earlier work.
In data set [2] the test system is chemotherapy resistant NSCLC patients. The settings on record: single agent; cited from earlier work.
Where [3] appears, read: unselected gefitinib treated NSCLC patients.

Consider `COc1cc2ncnc(Nc3ccc(F)c(Cl)c3)c2cc1OCCCN1CCOCC1` [gefitinib], for which the stable disease rates entry in data set [1] (NSCLC patients treated with gefitinib) is “about 30%”. The “disease stabilization and symptomatic improvement” value in data set [1] (advanced disease progressing after standard therapies) is reported as “about 40%”. Moreover, in data set [1] (setting [3]), the Objective Response entry is given as “up to 18%” and the symptomatic improvement is 40%. Besides, in data set [2], the response rates entry is given as “about 10%”.
